Test results as given in paper PMC8080777, “Discovery, optimization, and evaluation of non-bile acid FXR/TGR5 dual agonists” (Scientific Reports, 2021).

Legend:
[1] = test system: FXR; conditions: cited from earlier work
[2] = molecular target: T1, TGR5 (Homo sapiens, UniProt Q8TDU6); conditions: cited from earlier work
T1 construct: host or cells: CHO cells
T1 sequence (Q8TDU6 1-330): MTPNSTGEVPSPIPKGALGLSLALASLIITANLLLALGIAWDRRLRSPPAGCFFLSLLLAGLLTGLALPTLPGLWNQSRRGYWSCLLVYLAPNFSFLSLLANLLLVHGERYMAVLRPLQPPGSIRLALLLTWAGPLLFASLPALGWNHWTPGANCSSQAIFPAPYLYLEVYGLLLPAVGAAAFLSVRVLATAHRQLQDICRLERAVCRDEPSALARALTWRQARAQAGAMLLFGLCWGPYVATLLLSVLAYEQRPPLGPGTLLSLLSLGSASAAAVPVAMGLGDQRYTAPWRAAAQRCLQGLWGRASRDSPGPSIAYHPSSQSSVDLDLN

[3] = test system: SHP mRNA; assay: In vivo FXR assay: SHP mRNA in mice liver by real-time PCR; conditions: CDAHFD-fed C57BL/6J mice, single oral dose 100, 30 and 10 mg/kg, liver four hours after administration
Experimental: Test compounds were orally administered to 7-week old male C57BL/6J mice (Nippon Charles River Co., Ltd., Yokohama City, Kanagawa, Japan), that were administered CDAHFD (#A06071302, Research Diets, 20 Jules Lane, New Brunswick, NJ, USA) consisting 60 kcal% fat and 0.1% methionine by weight for 7 days. After four hours of administration, the liver was removed, and total RNA was extracted using a Pure Link RNA Mini Kit (Invitrogen, Thermo Fisher Scientific K. K., Minato-ku, Tokyo, Japan). The concentration of total RNA was measured using Micro Sample Spectrophotometer (SimpliNano, GE Healthcare UK Ltd, Amersham Place Little Chalfont Buckinghamshire, HP7 9NA UK), and cDNA was synthesized using ReverTra Ace qPCR RT Master Mix (Toyobo Co., Ltd., Osaka City, Osaka, Japan). Real-time PCR was performed using a CFX96 Touch Real-Time PCR Analysis System (CFX Manager, Bio-Rad, 1000 Alfred Nobel Drive, Hercules, CA, USA), and the mRNA expression levels of SHP and CYP7A1, the target genes of FXR, were measured using the intercalator method.
S4. In vitro, in vivo assay, and selectvity.
To directly evaluate the in vitro agonist activity towards FXR, test compounds were evaluated in CHO cells transfected with FXR responsive luciferase reporter (Nuclear Receptor & In Vitro Toxicology Solutions, Indigo Biosciences, State College, PA, USA). […]

[4] = molecular target: T2, GPR120 (Homo sapiens, UniProt Q5NUL3); assay: Selectivity, cellular functional assay; type: cell-based
T2 construct: Eurofine Cerep / Eurofine Panlabs Discovery Services
T2 sequence (Q5NUL3 whole entry): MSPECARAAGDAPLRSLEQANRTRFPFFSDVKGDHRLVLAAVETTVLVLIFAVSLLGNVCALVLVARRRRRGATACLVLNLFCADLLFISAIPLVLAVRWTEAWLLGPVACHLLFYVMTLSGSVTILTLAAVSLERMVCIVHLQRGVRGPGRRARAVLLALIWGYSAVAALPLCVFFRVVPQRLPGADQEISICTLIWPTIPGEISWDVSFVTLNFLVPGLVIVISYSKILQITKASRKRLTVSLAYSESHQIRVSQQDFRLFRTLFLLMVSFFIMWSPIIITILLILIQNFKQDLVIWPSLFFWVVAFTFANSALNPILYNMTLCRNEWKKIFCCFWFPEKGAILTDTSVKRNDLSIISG
Source text: (§1) Compound 20p was screened against a broad panel of NRs and GPCRs to determine its agonist activity in vitro. […]
(§2) The selectivity tests of compound 20p were investigated by Eurofine Cerep (86600, Celle-Levescault, France) and Eurofine Panlabs Discovery Services (No. 25, Wugong, 6th Road, Wugu District, New Taipai City, Taiwan). Compound binding was caluculated as a % inhibition of the binding of radioactively labeled ligand specific for each target. Cellular agonist effect wa calculated as a % of control response to a known reference agonist for each target and cellular antagonist effect as caluculated as a % inhibition of control reference agonist response for each target at 30 µM of compound 20p.
(§3) 12.3%; CAR -2.5%, PPAR alpha 0.0%; PPAR delta -3.6%; PPAR gamma -1.0%; PXR 4.5%; ER alpha -16.6%; ER beta 17% at 30 µM.

[5] = molecular target: T3, ER alpha (Homo sapiens, UniProt P03372); assay: Selectivity, binding assay
T3 construct: Eurofine Cerep / Eurofine Panlabs Discovery Services
T3 sequence (P03372 whole entry): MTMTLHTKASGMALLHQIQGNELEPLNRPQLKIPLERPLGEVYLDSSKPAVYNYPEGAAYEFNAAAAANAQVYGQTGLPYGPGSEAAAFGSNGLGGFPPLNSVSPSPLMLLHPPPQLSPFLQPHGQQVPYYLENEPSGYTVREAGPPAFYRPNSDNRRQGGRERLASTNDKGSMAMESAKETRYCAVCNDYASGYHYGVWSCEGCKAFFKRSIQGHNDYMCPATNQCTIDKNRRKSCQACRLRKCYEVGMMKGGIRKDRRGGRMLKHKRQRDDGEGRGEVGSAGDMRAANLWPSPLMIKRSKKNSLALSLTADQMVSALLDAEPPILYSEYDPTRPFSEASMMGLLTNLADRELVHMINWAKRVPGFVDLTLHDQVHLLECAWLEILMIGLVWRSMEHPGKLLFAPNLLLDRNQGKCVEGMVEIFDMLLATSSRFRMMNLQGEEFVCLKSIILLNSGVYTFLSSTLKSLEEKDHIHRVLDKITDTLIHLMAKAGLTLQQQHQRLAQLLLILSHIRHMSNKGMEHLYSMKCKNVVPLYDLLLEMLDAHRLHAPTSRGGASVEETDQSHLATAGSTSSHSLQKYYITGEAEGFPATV
Source text: as §1, §2, §3

[6] = molecular target: T4, ER beta (Homo sapiens, UniProt Q92731); assay: Selectivity, binding assay
T4 construct: Eurofine Cerep / Eurofine Panlabs Discovery Services
T4 sequence (Q92731 whole entry): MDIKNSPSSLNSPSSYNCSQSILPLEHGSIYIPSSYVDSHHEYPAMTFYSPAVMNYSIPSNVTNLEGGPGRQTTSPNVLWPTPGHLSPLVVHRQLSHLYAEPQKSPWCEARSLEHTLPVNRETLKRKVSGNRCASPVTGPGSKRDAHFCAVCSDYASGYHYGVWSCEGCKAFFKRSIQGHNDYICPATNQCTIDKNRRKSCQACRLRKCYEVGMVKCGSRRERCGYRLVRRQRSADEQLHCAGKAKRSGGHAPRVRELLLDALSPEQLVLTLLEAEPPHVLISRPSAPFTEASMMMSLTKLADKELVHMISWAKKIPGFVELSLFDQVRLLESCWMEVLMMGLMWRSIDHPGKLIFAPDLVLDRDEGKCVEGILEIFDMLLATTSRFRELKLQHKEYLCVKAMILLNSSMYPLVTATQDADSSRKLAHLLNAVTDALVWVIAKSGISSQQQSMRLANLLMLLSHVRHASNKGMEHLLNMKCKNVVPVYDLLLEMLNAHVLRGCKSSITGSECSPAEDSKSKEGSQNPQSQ
Source text: as §1, §2, §3

[7] = molecular target: T5, RXR alpha (Homo sapiens, UniProt P19793); assay: Selectivity, binding assay
T5 construct: Eurofine Cerep / Eurofine Panlabs Discovery Services
T5 sequence (P19793 whole entry): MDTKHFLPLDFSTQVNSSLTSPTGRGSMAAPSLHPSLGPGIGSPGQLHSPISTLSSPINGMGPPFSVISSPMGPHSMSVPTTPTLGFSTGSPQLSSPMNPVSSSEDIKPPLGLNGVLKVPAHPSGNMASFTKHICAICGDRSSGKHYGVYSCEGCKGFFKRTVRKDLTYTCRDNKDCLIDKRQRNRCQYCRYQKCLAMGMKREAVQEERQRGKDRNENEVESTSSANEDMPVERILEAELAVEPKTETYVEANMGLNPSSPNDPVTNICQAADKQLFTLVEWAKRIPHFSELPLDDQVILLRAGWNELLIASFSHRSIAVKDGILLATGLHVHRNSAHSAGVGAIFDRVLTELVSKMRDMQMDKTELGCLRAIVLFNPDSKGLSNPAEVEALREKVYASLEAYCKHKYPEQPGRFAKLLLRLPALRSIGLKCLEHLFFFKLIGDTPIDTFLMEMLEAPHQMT
Source text: as §1, §2, §3

[8] = test system: GPCRs and NRs; assay: Broad panel of NRs and GPCRs; conditions: in vitro agonist activity
Source text: as §1, §2, §3

| activity at 30 µM ([4]; 30 µM, read-out: GPR120 cellular agonist effect, % of control response to reference agonist) | EC50 ([4]; cellular functional assay) | inhibition at 30 µM ([5]; 30 µM, read-out: ER alpha binding, % inhibition of the binding of radioactively labeled ligand) | EC50 ([5]; binding assay) | inhibition at 30 µM ([6]; 30 µM, read-out: ER beta binding, % inhibition of the binding of radioactively labeled ligand) | EC50 ([6]; binding assay) | inhibition at 30 µM ([7]; 30 µM, read-out: RXR alpha binding, % inhibition of the binding of radioactively labeled ligand) | EC50 ([7]; binding assay) | Compound | Reported FXR activity (in words) [1] | Reported TGR5 activity (in words) [2] | Induction of SHP mRNA in the liver [3] | Off-target activity against GPCRs and NRs (in words) [8] |
| --- | --- | --- | --- | --- | --- | --- | --- | --- | --- | --- | --- | --- |
| – | – | – | – | – | – | – | – | COC(=O)/C=C/c1cccc(N(Cc2ccc(-c3ccc(N(C)C)cc3)cc2)C(=O)C2CCCCC2)c1 [Compound 7, Fexaramine, reference compound] | specific and potent partial agonist against FXR | no significant agonist activity against TGR5 | – | – |
| -5.2% | > 30 µM | -16.6% | > 30 µM | 17% | > 30 µM | -12.3% | > 30 µM | COc1cc(Cl)cc(N(CC23CCC(c4ccc(OC)c(C#N)c4)(CC2)CC3)C(=O)c2ccncc2C)c1 [Compound 20p] | – | – | dose-dependently induced SHP mRNA in the liver | no significant off-target activity against GPCRs and NRs |
| – | – | – | – | – | – | – | – | COc1ccc(C23CCC(CN(C(=O)c4ccncc4C)c4cc(Cl)cc(Cl)c4)(CC2)CC3)cc1C#N [Compound 20q] | – | – | dose-dependently induced SHP mRNA in the liver | – |
